Reference: article PMC9856044 (Biomolecules, 2023)

Legend:
[1] = test system: SK-OV-3 cells; experiment: MTT cytotoxicity assay, SK-OV-3; format: cell-based; conditions: Homo sapiens, SK-OV-3, 72 h incubation, ± SD
Procedure: (§1) Human cervical carcinoma HeLa (GIBCO BRL, Invitrogen, Waltham, MA, USA), human melanoma MDA-MB-435S and human ovarian adenocarcinoma SK-OV-3 (ATCC-LGC Standards GmbH, Wesel, Germany) cell lines were purchased from indicated cell culture banks. Normal human skin fibroblasts were isolated from the upper arm of a donor at the Neurochemical Laboratory, Department of Chemistry and Biochemistry, School of Medicine, University of Zagreb. HeLa, MDA-MB-435S and fibroblasts were grown in Dulbecco’s Modified Eagle’s Medium (DMEM; Sigma-Aldrich, St. Louis, MI, USA) while the SK-OV-3 cell line was grown in McCoy’s 5A medium (Capricorn Scientific, Ebsdorfergrund, Germany). All media were supplemented with 10% fetal bovine serum (FBS; Sigma-Aldrich) and 50 I.U./mL penicillin and 50 μg/mL streptomycin. Cells were cultured in a humidified atmosphere of 5% CO2 at 37 °C and were sub-cultured every 3–4 days. HeLa, MDA-MB-435S, SK-OV-3 cells and fibroblasts were seeded in 96 well plates. Twenty-four hours later the cells were treated, in quadruplicate, with different concentrations of compounds (dissolved in DMSO, kept at 4 °C and protected from light). Following 72 h of incubation at 37 °C, the medium was aspired and modified 3-(4,5-dimethylthiazol-2-yl)-2,5-diphenyltetrazolium bromide (MTT) assay was used to determine the cytotoxic effect of the tested compounds. Three hours later, formazan crystals were dissolved in DMSO (0.17 mL/well), the plates were mechanically agitated for 20 min and the optical density at 600 nm was determined on a microtiter plate reader (Awareness Technology Inc., Palm City, FL, USA). The experiments were repeated three times.

[2] = test system: HeLa cells; experiment: MTT cytotoxicity assay, HeLa; format: cell-based; conditions: Homo sapiens, 72 h incubation, ± SD
Procedure: as §1

[3] = test system: Tel22 (DNA, G4) AGGGTTAGGGTTAGGGTTAGGG; experiment: UV thermal melting, 260 nm; conditions: Na+ (sodium cacodylate, I = 0.1 M); pH 7.0; Tel22 2 µM, r = 1.0 (compound 2 µM)
[4] = test system: Tel22 (DNA, G4) AGGGTTAGGGTTAGGGTTAGGG; experiment: fluorescence titration (SPECFIT); conditions: Na+ (sodium cacodylate, I = 0.1 M); pH 7.0, 25 °C; site 1 of 2
[5] = Solubility and aggregation (UV/Vis characterization); format: physicochemical; conditions: sodium cacodylate buffer, I = 0.05 mol dm^−3, pH = 7.0; UV/Vis
Procedure: The UV/vis spectra were recorded on a Varian Cary 100 Bio spectrophotometer (Agilent, Santa Clara, CA, USA), CD spectra on JASCO J815 spectrophotometer (ABL&E Handels GmbH, Wien, Austria) and fluorescence spectra on a Varian Cary Eclipse spectrophotometer (Agilent, Santa Clara, CA, USA) at 25 °C using appropriate 1 cm path quartz cuvettes.
Studied compounds, 1–6 were soluble (c = 8 × 10^−4 mol dm^−3) in DMSO. […] Therefore, the stock solution of 2 was prepared fresh before use. The experiments were done in aqueous buffer (sodium cacodylate buffer, I = 0.05 mol dm^−3; pH = 7.0).
However, the shape of UV/Vis spectra of cyanine 2 changed with increasing concentration (calibration experiment in Figure S2 in SI). In addition to the dominant maximum at 432 nm (which most likely corresponds to the monomer form of the dye), the absorption band at 413 nm becomes more intense (Figure S2 in SI). Presumably, it corresponds to the aggregated form (H-aggregate). Based on the existence of an absorption band at 432 nm, only the monomer dye form is visible at high temperature (95 °C) (Figure S8b in SI). However, after cooling the solution to 25 °C, an additional band appears at 413 nm, which corresponds to the aggregated dye form.

[6] = test system: Fibroblasts; experiment: MTT cytotoxicity assay, normal human skin fibroblasts; format: cell-based; conditions: Fibroblast, 72 h incubation, ± SD
Procedure: as §1

[7] = test system: Tel22 (DNA, G4) AGGGTTAGGGTTAGGGTTAGGG; experiment: fluorescence titration; conditions: K+ (potassium phosphate, I = 0.1 M); pH 7.0, 25 °C; emission increase, no constant fitted
[8] = test system: Tel22 G-quadruplex; experiment: Thermal melting of Tel22 in sodium cacodylate buffer; format: binding, human; conditions: Tel22, r = 1.0, sodium cacodylate buffer, pH = 7.0, I = 0.1 mol dm^−3; error ± 0.5 °C
Procedure: (§2) Thermal melting curves for DNA, RNA and their complexes with studied compounds were determined as previously described by following the absorption change at 260 nm as a function of temperature. The absorbance of the ligands was subtracted from every curve and the absorbance scale was normalized. Tm values are the midpoints of the transition curves determined from the maximum of the first derivative and checked graphically by the tangent method. The ∆Tm values were calculated by subtracting Tm of the free nucleic acid from Tm of the complex. Every ∆Tm value here reported was the average of two measurements. The error in ∆Tm is ±0.5 °C. 5′-AGGG(TTAGGG)3–3′(Tel22) was obtained from IDT (Integrated DNA Technologies, Coralville, IA, USA). Tel22 was dissolved in 0.1 M either in sodium cacodylate or potassium phosphate buffer. The starting Tel22 oligonucleotide solution was first heated up to 95 °C for 10 min, then slowly cooled to 10 °C at the cooling rate of 1 °C/min to allow DNA oligonucleotide to adopt a G-quadruplex structure. The G-quadruplex structure was confirmed by thermal melting and CD spectra. The concentration of G quadruplex was expressed in terms of oligonucleotide structure. In fluorimetric titrations, aliquots of Tel 22 solution were added to the solution of ligands (c ~ 2 × 10^−7 M, in SI).

[9] = test system: MDA-MB-435S cells; experiment: MTT cytotoxicity assay, MDA-MB-435S; format: cell-based; conditions: Homo sapiens, 72 h incubation, ± SD
Procedure: as §1

[10] = molecular target: Tel22 (5′-AGGG(TTAGGG)3–3′) G-quadruplex; experiment: Fluorimetric titration with Tel22 in sodium cacodylate buffer (Na+ solution); format: binding, human; conditions: Tel22, sodium cacodylate buffer, pH = 7.0, I = 0.1 mol dm^−3; SPECFIT fit of fluorescence titration
Procedure: (§3) Materials. Polynucleotides were purchased as noted: poly A–poly U, calf thymus ctDNA, poly(dAdT)2 and poly(dGdC)2 (Sigma-Aldrich, St. Louis, MI, USA). Polynucleotides were dissolved in Na-cacodylate buffer, I = 0.05 mol dm^−3, pH = 7.0. The calf thymus ctDNA was additionally sonicated and filtered through a […]. Polynucleotide concentration was determined spectroscopically as the concentration of phosphates. Spectrophotometric titrations were performed at pH = 7.0 (I = 0.05 mol dm^−3, sodium cacodylate buffer) by adding aliquots of polynucleotide solution into the solution of the studied compound for fluorimetric experiments and CD experiments were done by adding aliquots of the compound stock solution into the solution of a polynucleotide. In fluorimetric experiments, an excitation wavelength of λexc = 425, 431, 423, 427, 406 and 407 nm, respectively, was used to avoid the inner filter effect caused due to increasing absorbance of the polynucleotide. Emission was collected in the range λem = 400–700 nm. Values for Ka obtained by processing titration data using the Scatchard equation [27], all have satisfactory correlation coefficients (≥0.98).
as §2
(§4) Binding constants (log Ka) and stoichiometry of complexes were calculated from the fluorimetric data using non-linear least-square program SPECFIT [46], in the concentration range that corresponded to 20–80% complex formed.

[11] = test system: Tel22 G-quadruplex; experiment: Thermal melting of Tel22 in potassium phosphate buffer; format: binding, human; conditions: Tel22, r = 1.0, potassium phosphate buffer, pH = 7.0, I = 0.1 mol dm^−3; error ±0.5 °C
Procedure: as §2

[12] = test system: ds-DNA and ds-RNA; experiment: Thermal melting of ds-DNA and ds-RNA; format: binding; conditions: r [compound]/[nucleotide phosphate] = 0.1
Procedure: as §2
Binding abilities of 1–6 compounds were further explored by thermal melting experiments. […]

[13] = molecular target: Tel22 (5′-AGGG(TTAGGG)3–3′) G-quadruplex; experiment: Fluorimetric titration with Tel22 in potassium phosphate buffer (K+ solution); format: binding, human; conditions: Tel22, K+ solution; no accurate fit possible
Procedure: as §3, §2, §4

**Q.** Which IC50 [1] does the source give for C[n+]1c(C=C2Sc3ccccc3N2CCCS(=O)(=O)[O-])[se]c2ccccc21 [Compound 1, 3-(2-((3-methylbenzo[d][1,3]selenazol-3-ium-2-yl)methylene)benzo[d]thiazol-3(2H)-yl)propane-1-sulfonate] here?
**A.** 32.8 ± 1.09 µM

**Q.** What about the melting point of the same compound?
**A.** > 300 °C

**Q.** And the IC50 [2]?
**A.** 31.9 ± 1.14 µM

**Q.** And the “∆Tm” value [3]?
**A.** 0 °C

**Q.** What about the logKa1 [4] of the same compound?
**A.** 6.93 ± 0.25

**Q.** What about the “Aggregation in aqueous buffer” value [5] of the same compound?
**A.** do not form aggregates

**Q.** And the IC50 [6]?
**A.** > 40 µM

**Q.** And the binding [7]?
**A.** yes

**Q.** What about the “∆Tm” value [8] of the same compound?
**A.** 0 °C

**Q.** What about the IC50 [9] of the same compound?
**A.** 18.5 ± 1.23 µM

**Q.** What about the “logKa1 (L + G ⇆ LG)” value [10] of the same compound?
**A.** 6.93 ± 0.25

**Q.** What about the “logKa2 (LG + G ⇆ LG2)” value [10] of the same compound?
**A.** 5.69 ± 0.23

**Q.** With C[n+]1c(/C=C2\Sc3ccccc3N2CCS)[se]c2ccccc21 [Compound 6, 2-((3-(2-mercaptoethyl)benzo[d]thiazol-2(3H)-ylidene)methyl)-3-methylbenzo[d][1,3]selenazol-3-ium methosulphate] as the compound, how does the “∆Tm” value [11] read?
**A.** 6.9 °C

**Q.** What about the IC50 [1] of the same compound?
**A.** > 40 µM

**Q.** And the IC50 [2]?
**A.** 30.7 ± 4.07 µM

**Q.** And the “Aggregation in aqueous buffer” value [5]?
**A.** significantly aggregate

**Q.** What about the “Effect on DNA/RNA thermal stability” value [12] of the same compound?
**A.** did not show any impact

**Q.** What about the IC50 [6] of the same compound?
**A.** > 40 µM

**Q.** What about the “∆Tm” value [8] of the same compound?
**A.** 2.0 °C

**Q.** What about the IC50 [9] of the same compound?
**A.** 32.8 ± 3.76 µM

**Q.** What about the “log Ka (indicated by steeper slope of titration curves)” value [13] of the same compound?
**A.** ≥ 7
